The text below walks through data of US11254907B2, “Fungal volatile organic compound enhances plant s growth characteristics” (The United States of America as represented by the …, priority 2018, dated 2022).

The test system of experiment [1] is peach rootstock 'Bailey-OP' (Prunus persica). Put plainly: Root primordia induction from peach in vitro shoots on mLP with IBA. It counts as in vivo. The method, then: A two-step process was tested to induce roots from in vitro shoots and establish plants in the greenhouse. In vitro shoots of the peach rootstock ‘Bailey-OP’ (Prunus persica) of longer than 2 cm in height were first transferred to a modified Lepoivre LP medium (mLP) containing basal salts of LP medium (Quorin and Lepoivre, Acta Hort. 78:437-442, 1977) and a vitamin mixture composed of 1.0 mg/L thiamine-HCl, 1.0 mg/L nicotinic acid, 1.0 mg/L pyridoxine-HCl, 4.0 mg/L glycine, 0.2 mg/L biotin and 2.0 mg/L Ca-pathothenate (mLP) supplemented with various concentrations of indole-3-butyric acid (IBA) and cultured for two weeks to induce root primordia. The IBA concentrations ranged from 0.5 to 2.0 mg/L. Shoots with root primordia at the base were then taken out and separated into two groups. The first group was cultured on mLP medium without any growth regulators for continuous plant development as a control, whereas the second group was maintained on a similar growth regulator-free mLP medium but with a culture tube closure containing MVOC-emitting fungus of C. sp isolate TC09 (Accession No. NRRL 67603).

The test system of a further experiment is tobacco seedlings. As to the kind of experiment: Polar auxin transport interference test (NPA in plant culture medium with MVOCs). It counts as in vivo, Nicotiana tabacum. The note with it: 10 μM NPA, 20 days. As for the experimental part: In vitro containment conditions for fungal cultures were modified to utilize culture tube closure or cap (3×4 cm, diameter×length, closure for 25 mm culture tubes, Sigma C5791) in order to mitigate problems related to condensation build-up inside the filter-sealed microcentrifuge tubes that could suffocate growing fungus and reduce MVOC emission, as subsequently noticed. For each sterile closure cap, 5 ml semi-solid MS medium was added and 10 μl of conidial suspension at a density of 1×10^5 CFU per ml was subsequently introduced. The fungal culture in the closure was then placed in a Magenta™ GA7 vessel that contains tobacco seedlings. For controls, a blank culture cap was added. All experiments were repeated three times. Each involved three treated and untreated vessels, respectively, and three replicate plants for each vessel. Cultures were placed under light conditions with a 16-h photoperiod at 25° C. Plants were treated with 10 or 20 d of fungal exposure duration. Regardless of exposure duration used, plant growth was monitored and compared with controls without fungal cultures at the end of 20 d after introduction of fungal cultures. For polar auxin transport interference tests, 10 μM auxin transport inhibitor N-1-naphthylphthalamic acid (NPA) is incorporated in plant culture medium and used to assess plant response in the presence of MVOCs. […]

The conditions of experiment [2]: NPA as low as 5 μM; cited from earlier work.

Take `O=C(O)CCCc1c[nH]c2ccccc12` [IBA, indole-3-butyric acid]: the root formation efficiency entry in experiment [1] (0.5 mg/L IBA) was “very low root formation efficiency”. Besides, the root formation frequency result in experiment [1] (1.0 mg/L IBA) is reported as “up to 70%”. In addition, the figures for the root induction efficiency entry in experiment [1] (1.5 mg/L IBA) and in experiment [1] (2.0 mg/L IBA) were “great reduction in root induction efficiency” and “less than 20%”, respectively.
As for `O=C(O)c1ccccc1C(=O)Nc1cccc2ccccc12` [NPA, N-1-naphthylphthalamic acid], in the experiment with tobacco seedlings, the “effect on root length, number of leaves and largest leaf length of C. sp treated plants” value was “remained similar”; the lateral root formation result is reported as “arrested lateral root formation”. Further, in experiment [2], the “effect on stimulatory effects of Fusarium oxysporum MVOCs on plant biomass increase” value was “completely negating”.
